Source: PMC9481312, “In Vitro α-Glycosidase Inhibition and In Silico Studies of Flavonoids Isolated from Pistacia integerrima Stew ex Brandis” (BioMed Research International, 2022)

Biological target: T1, α-glycosidase (intestinal α-glycosidase; α-glucosidase)
T1 construct: gene Si; crude native extract: supernatant of sonicated rat intestinal acetone powder in saline (100:1 w/v); not purified, isoenzyme not identified
Assay: colorimetric p-nitrophenyl release, 96-well plate
Assay type: biochemical
Conditions: 5 mM p-nitrophenyl-α-D-glucopyranoside, 100 mM phosphate, pH 6.8, DMSO, 5 min preincubation; crude rat intestinal extract
From the text: colorimetric p-nitrophenyl release, 96-well plate on α-glycosidase (intestinal α-glycosidase; α-glucosidase)

IC50 | Structure (SMILES)
287.3 ± 2.09 µM | COc1cc(O)c2c(c1)O[C@H](c1ccc(O)cc1)CC2=O [compound 4, sakuranetin]
826.4 ± 1.87 µM | COc1cc(-c2oc3cc(O)c(OC)c(O)c3c(=O)c2O)ccc1O [compound 5, spinacetin]
790 ± 2.31 µM | COc1cc(O)c2c(c1)OC(c1ccc(O)cc1)C(O)C2=O (stereo not shown) [compound 3, 3,5,4′-trihydroxy,7-methoxy-flavanone]
743.1 ± 1.32 µM | COc1c(O)cc2oc(-c3ccc(O)c(O)c3)c(O)c(=O)c2c1O [compound 6, patuletin]

Continued, compound first:

Structure (SMILES) | IC50
C[C@H]1O[C@H](O[C@H]2[C@H](O)[C@@H](O)[C@@H](O[C@H]3[C@H](O)[C@@H](O)C(O)O[C@@H]3CO)O[C@@H]2CO)[C@H](O)[C@@H](O)[C@@H]1N[C@H]1C=C(CO)[C@@H](O)[C@H](O)[C@H]1O (stereo partly shown) [acarbose, reference compound] | 841 ± 1.34 µM
O=C1c2c(O)cc(O)cc2O[C@H](c2ccc(O)cc2)[C@H]1O [compound 1, 3,5,7,4′-tetrahydroxy-flavanone] | 183.2 ± 1.22 µM
O=C1C[C@@H](c2ccc(O)cc2)Oc2cc(O)cc(O)c21 [compound 2, naringenin] | 754.2 ± 1.76 µM
